The source of these data is patent US6476027B1, “N-hydroxy 4-sulfonyl butanamide compounds” (Monsanto Company, priority 1997, dated 2002).

Broadly, the IC50 is the midpoint of a concentration-inhibition curve.

Series [1] deals with T1, recombinant human MMP-1 (Homo sapiens, UniProt P03956).
T1 construct: made in house; host or cells: transfected HT-1080 cells (provided by Dr. Howard Welgus, Washington University)
T1 sequence (P03956 100-469): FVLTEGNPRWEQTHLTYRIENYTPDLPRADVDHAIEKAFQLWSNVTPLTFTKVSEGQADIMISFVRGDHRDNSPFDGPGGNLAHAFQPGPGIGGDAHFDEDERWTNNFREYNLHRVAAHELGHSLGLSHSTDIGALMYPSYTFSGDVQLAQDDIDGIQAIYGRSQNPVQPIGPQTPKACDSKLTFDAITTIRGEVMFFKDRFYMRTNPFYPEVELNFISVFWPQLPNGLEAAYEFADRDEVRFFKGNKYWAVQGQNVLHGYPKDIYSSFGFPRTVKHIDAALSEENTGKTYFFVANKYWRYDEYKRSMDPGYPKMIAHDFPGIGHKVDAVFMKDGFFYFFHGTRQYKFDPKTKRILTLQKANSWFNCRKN
Briefly: In vitro metalloprotease inhibition, fluorogenic MCA peptide substrate. The series is classed as biochemical. The note with it: room temperature, pH 7.5, 4 μM substrate, APMA-activated enzyme. The procedure: (§1) Briefly, 4-aminophenylmercuric acetate (APMA) or trypsin activated MMPs were incubated with various concentrations of the inhibitor compound at room temperature for 5 minutes.
(§2) More specifically, recombinant human MMP-13 and MMP-1 enzymes were prepared in laboratories of the assignee. MMP-13 was expressed in baculovirus as a proenzyme, and purified first over a heparin agarose column and then over a chelating zinc chloride column. The proenzyme was activated by APMA for use in the assay. MMP-1 expressed in transfected HT-1080 cells was provided by Dr. Howard Welgus of Washington University, St. Louis, Mo. The enzyme was also activated using APMA and was then purified over a hydroxamic acid column.
(§3) MCA-ProLeuGlyLeuDpaAlaArgNH^2, wherein MCA is methoxycoumarin and Dpa is 3-(2,4-dinitrophenyl)-L-2,3-diaminopropionyl alanine.
(§4) The buffer used for assays contained 100 mM Tris-HCl, 100 mM NaCl, 10 mM CaCl2 and 0.05 percent polyethyleneglycol (23) lauryl ether at a pH value of 7.5.

In series [2] the target is T2, recombinant human MMP-13 (Homo sapiens, UniProt P45452).
T2 construct: made in house
The series is described as above. The series is classed as biochemical. The following applies: room temperature, pH 7.5, 4 μM substrate, APMA-activated enzyme. How it is done:
as §1, §2, §3, §4

Series [3] has as its target T3, MMP-2 (Homo sapiens, UniProt P08253).
T3 sequence (P08253 110-660): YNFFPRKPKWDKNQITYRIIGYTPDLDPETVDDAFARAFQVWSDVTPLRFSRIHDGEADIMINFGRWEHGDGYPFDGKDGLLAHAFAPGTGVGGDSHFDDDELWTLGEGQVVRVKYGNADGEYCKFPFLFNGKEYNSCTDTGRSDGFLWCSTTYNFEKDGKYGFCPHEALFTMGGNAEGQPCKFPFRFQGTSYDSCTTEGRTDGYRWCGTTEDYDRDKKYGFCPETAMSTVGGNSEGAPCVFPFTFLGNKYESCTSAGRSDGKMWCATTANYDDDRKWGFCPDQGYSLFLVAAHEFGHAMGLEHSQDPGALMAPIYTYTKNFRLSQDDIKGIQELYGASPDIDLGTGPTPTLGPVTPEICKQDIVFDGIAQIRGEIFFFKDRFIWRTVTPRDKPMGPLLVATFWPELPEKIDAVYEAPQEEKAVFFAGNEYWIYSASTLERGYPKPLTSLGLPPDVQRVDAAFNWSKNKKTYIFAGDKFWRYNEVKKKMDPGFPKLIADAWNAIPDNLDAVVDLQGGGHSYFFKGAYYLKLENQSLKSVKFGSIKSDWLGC
The description is as above. The class given is biochemical. The following applies: room temperature, pH 7.5, 4 μM substrate. The procedure: as §1, §3, §4

Series [4] concerns advanced, rapidly progressive, treatment-refractory solid tumor cancers. The following applies: cited from earlier work.

Structures can show the parent of a compound that is named as a salt.

Take `CC(C)(CS(=O)(=O)c1ccc(Oc2ccccc2)cc1)[C@H](N)C(=O)NO` [Example 12]: the IC50 in series [1] is 3300 nM; in series [2] it was 1.6 nM; in series [3] it was 0.3 nM.

With `CC(C)(CS(=O)(=O)c1ccc(Oc2ccccc2)cc1)[C@H](NC(=O)CN1CCOCC1)C(=O)NO` [Example 13], the IC50 in series [1] was 770 nM; in series [2] it was 1.4 nM; in series [3], 0.3 nM.

On to `O=C(NO)C1(CCS(=O)(=O)c2ccc(Oc3ccccc3)cc2)CCNCC1` [Example 17], for which the values for the IC50 in series [1], in series [2] and in series [3] were above 10000 nM, 169 nM and 70 nM, respectively.

Turning to `CC(C)(C)OC(=O)N[C@H](C(=O)NO)C(C)(C)CS(=O)(=O)c1ccc(Oc2ccccc2)cc1` [Example 11], the half-inhibitory concentration (IC50) in series [1] is 50 nM; in series [2], below 0.1 nM; in series [3] it was below 0.1 nM.

For the compound `CC(C)(CS(=O)(=O)c1ccc(Oc2ccccc2)cc1)[C@H](OCc1ccccn1)C(=O)NO` [Example 10], the IC50 in series [2] was 2.4 nM; in series [3], 1.5 nM.

Regarding `COc1ccc(S(=O)(=O)CCCC(=O)NO)cc1` [Example 6], the 50% inhibitory concentration (IC50) in series [2] turned out to be 2000 nM.

For the compound `CC(C)(CS(=O)(=O)c1ccc(Oc2ccccc2)cc1)[C@H](NC(=O)CN1CCOCC1)C(=O)NO` [Example 13a, (S)-N-[1-[(Hydroxyamino)carbonyl]-2,2-dimethyl-3-[(4-phenoxyphenyl)sulfonyl]-propyl]-4-morpholineacetamide Monohydrochloride], the values for the IC50 in series [1], in series [2] and in series [3] were 1800 nM, 1.8 nM and 0.6 nM, respectively.

With `CC(C)(C)OC(=O)N1CCC(CCS(=O)(=O)c2ccc(Oc3ccccc3)cc2)(C(=O)NO)CC1` [Example 16], the values for the IC50 in series [1], in series [2] and in series [3] were above 10000 nM, 400 nM and 169 nM, respectively.

Regarding `CC(C)(CS(=O)(=O)c1ccc(Oc2ccccc2)cc1)[C@H](O)C(=O)NO` [Example 1], the values for the IC50 in series [1], in series [2] and in series [3] were 6300 nM, 1.9 nM and 0.3 nM, respectively.

As to `CC(C)(CS(=O)(=O)c1ccc(Oc2ccccc2)cc1)[C@@H](O)C(=O)NO` [Example 2], the IC50 was above 10000 nM in series [1], 8.8 nM in series [2] and 2 nM in series [3].

On to `Cc1ccc(Oc2ccc(S(=O)(=O)CCC(O)C(=O)NO)cc2)cc1C` (racemic) [Example 7], for which the IC50 was above 10000 nM in series [1], 400 nM in series [2] and 120 nM in series [3].

For `CNC(=O)[C@@H](NC(=O)[C@H](CC(C)C)[C@H](O)C(=O)NO)C(C)(C)C` [marimastat, Marimastat], the “effect on cancer-specific antigens used as surrogate markers for biological activity” value in series [4] (Phase I/II, colorectal, pancreatic, ovarian, prostate cancers) is “dose-related reduction in the rise of cancer-specific antigens”. Besides, the “most common drug-related toxicity” value in series [4] (clinical trials, patients with advanced solid tumor cancers) is “musculoskeletal pain and stiffness”.

As to `CC(C)(CS(=O)(=O)c1ccc(Oc2ccccc2)cc1)[C@H](OCc1ccncc1)C(=O)NO` [Example 9a, (S)-N-Hydroxy-3,3-dimethyl-4-[(4-phenoxyphenyl)sulfonyl]-2-(4-pyridinylmethoxy)butanamide], the results for the 50% inhibitory concentration (IC50) in series [1], in series [2] and in series [3] were 7000 nM, 3 nM and 1.3 nM, respectively.

For the compound `CC(C)(CS(=O)(=O)c1ccc(Oc2ccccc2)cc1)[C@H](NC(=O)CN1CCCC1)C(=O)NO` [Example 14], the results for the half-maximal inhibitory concentration (IC50) in series [1], in series [2] and in series [3] were above 10000 nM, 2.4 nM and 1.8 nM, respectively.

For `CC(C)(CCS(=O)(=O)c1ccc(Oc2ccccc2)cc1)C(=O)NO` [Example 3], the IC50 in series [1] is above 10000 nM; in series [2] it was 2600 nM; in series [3] it was 1000 nM.

In the case of `O=C(NO)C(CCS(=O)(=O)c1ccc(Oc2ccccc2)cc1)N1CCCCC1` (centres unmarked) [Example 15], the half-maximal inhibitory concentration (IC50) is above 10000 nM in series [1], 13.9 nM in series [2] and 7.7 nM in series [3].

With `CC(C)(CS(=O)(=O)c1ccc(Oc2ccccc2)cc1)[C@H](OCc1cccnc1)C(=O)NO` [Example 8a, (S)-N-Hydroxy-3,3-dimethyl-4-[(4-phenoxyphenyl)sulfonyl]-2-(3-pyridinylmethoxy)butanamide], the IC50 in series [1] was above 10000 nM; in series [2], 5 nM; in series [3] it was 2.2 nM.

As to `CC(CCS(=O)(=O)c1ccc(Oc2ccccc2)cc1)C(=O)NO` (centres unmarked) [Example 5], the IC50 in series [1] was above 10000 nM; in series [2] it was 1.8 nM; in series [3] it was 3.2 nM.

Turning to `O=C(NO)C(O)CCS(=O)(=O)c1ccc(Oc2ccccc2)cc1` (centres unmarked) [Example 4], the 50% inhibitory concentration (IC50) in series [1] was above 10000 nM; in series [2] it was 54.4 nM; in series [3] it was 15.8 nM.
